Test results published in patent US7884074B2, “Compounds and methods for prevention and/or treatment of inflammation using the same” (Ikaria Development Subsidiary Two, LLC, priority 2008, dated 2011).

System: RhoA
Experiment: thrombin induced RhoA activation in HUVEC culture (active RhoA pull-down, Western blot)
Type: cell-based, human
Conditions: 5 U/ml thrombin alone, 5 min
Experimental: The biological effect of the compounds was established in a model using thrombin induced RhoA activation in human umbilical vein endothelial cell (HUVEC) culture.
HUVEC are grown to confluence under standard conditions. Before induction of Rho activity HUVEC were starved for 4 h by using IMDM (Gibco) without growth factor and serum supplements. After the starvation period, 5 U/ml Thrombin (Calbiochem) or 5 U thrombin plus 50 μg/ml of test compound was added to the starvation medium for 1, 5 and 10 min. Active RhoA was isolated using Rho Assay Reagent from Upstate according to manufactures instructions. Isolates were separated on a 15% polyacrylamide gel and blotted on Nitrocellulose-Membrane (Bio-Rad). RhoA was detected by using Anti-Rho (-A, -B, -C), clone55 from Upstate (1:500).

With thrombin the “Relative RhoA stimulation compared to unstimulated control” value was 5.6.
